One assay relates to A549 cells. The assay can be described thus: Cell viability assay (Cell-Titer GLO). Particulars: Homo sapiens; A549; Lung cancer; 48 h; read-out: Anti-proliferative EC50. The assay is classed as cell-based, human. The method, then: The media was according to culture conditions of each individual cell line (mentioned above). After 12 hrs, compounds were added in a total volume of 5 μL of media (two-fold diluted) to each well with final concentrations from 5 nM to 30 μM. The measurements were conducted 48 hrs after seeding of the cells. Then, 25 μL of Cell-Titer GLO reagent (Promega) was added, and luminescence was measured on an EnSpire multimode plate reader (PerkinElmer), according to the manufacturer’s instructions. The estimated in vitro half-maximal inhibitory concentration (EC50) values were calculated using GraphPad Prism® v6.0 (San Diego, CA) software. The cell viability for A549 cells was also performed for 72- and 96-hrs by using the same experimental conditions as described above.

Assay [1] deals with T1, Skp1-ΔSkp2^F−box-peptide interaction (Homo sapiens, UniProt P63208).
T1 construct: recombinantly purify intact (Skp1^WT) and truncate (ΔSkp1^1−140; lacking H8-helix) forms of Skp1; His6; made in house; host or cells: Escherichia coli BL21 (DE3)
T1 sequence (P63208 whole entry, stated change not applied, the tested form may be a part): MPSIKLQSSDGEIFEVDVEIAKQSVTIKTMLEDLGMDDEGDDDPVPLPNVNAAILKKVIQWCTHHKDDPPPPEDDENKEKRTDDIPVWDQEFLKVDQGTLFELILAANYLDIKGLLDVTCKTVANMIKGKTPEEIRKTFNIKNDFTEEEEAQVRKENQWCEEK
The assay can be described thus: FP-based in vitro competition assay. In kind it is binding. Particulars: 200 μM compound, 25 μM Skp1^WT, 500 nM tracer. How it is done:
FP measurements were performed using an EnVision multilabel Reader (Perkin Elmer). […] Lyophilized F-box-FAM peptide was initially dissolved in a Tris buffer (20 mM Tris-HCl pH 9.0, 150 mM NaCl, 2 mM DTT), and then a stock solution of 100 μM was prepared by subsequent dilutions in a FP buffer (20 mM Tris-HCl pH 8.0, 150 mM NaCl, 2 mM DTT, 5% (v/v) glycerol, 0.001% (v/v) Triton X-100). Specific controls groups included free F-box-FAM (tracer), bound F-box-FAM in the presence of protein (Skp1^WT or ΔSkp1^1−140), and FP buffer for every measurement, allowing accurate estimation of specific polarization.
The selected subset of compounds were initially assayed at final concentration of 200 μM. The compounds were incubated at room temperature with Skp1^WT for 1 hr, followed by the addition of the tracer. […] After incubation for another 2 hrs, FP signals was measured on an EnVision multilabel Reader. The FP response was measured in quadruplicates with controls including free F-box-FAM (tracer), bound Skp1^WT-F-box-FAM, and FP buffer. The resultant FP values were plotted as bar graphs using ORIGIN Lab software.
For gradient FP assay, protein samples were mixed with an appropriate concentrations of ligand over the range of several folds. […] The IC50 value of the compound in the gradient-concentration assay was determined with nonlinear regression and fitting using the following equation in GraphPad Prism® v6.0 (San Diego, CA). Y = Bottom + (Top – Bottom)/(1 + 10^X−LogIC50). […] In short, the relationship between the IC50 of the inhibitor and the Ki of the inhibitor depends on the KD of the fluorescent ligand and the concentration of the receptor.

The term EC50 denotes the concentration needed to bring the measured effect to its halfway point. One may read the inhibition as the share of the control response that was lost under treatment. Higher therefore signals a strong effect.

On to `C/C=C(/C)C(=O)O[C@H]1[C@@H]2[C@H](C)C(=O)O[C@@H]2C[C@@H](C)[C@@H]2C=CC(=O)[C@]21C` [6-OAP, Brevilin A, reference compound], for which, in the assay on A549 cells, the EC50 stood at 14.1 ± 2.25 µM.

As to `COc1ccc(-c2cc(-c3cccc(N)c3)ccn2)cc1` [JH-3, 3-(2-(4-Methoxyphenyl)pyridin-4-yl)aniline], the inhibition at 200 µM in assay [1] was over 50%.
